Patent US11259956B2, “Combination therapy intravaginal rings” (International Partnership For Microbicides, Inc., priority 2013, dated 2022)

Legend:
[1] = Solubility of dapivirine in water; type: physicochemical
[2] = tested on: wild-type HIV-1 strains and HIV-1 strains harboring different resistance-inducing mutations; details: Das et al., J. Med Chem., 2004; cited from earlier work

Cc1cc(C)c(Nc2ccnc(Nc3ccc(C#N)cc3)n2)c(C)c1 [dapivirine, 4-[[4-[(2,4,6-trimethylphenyl)amino]-2-pyrimidinyl]amino]benzonitrile]
Solubility in water [1]: virtually insoluble in water | solubility [1]: < 1 µg/mL | Activity against HIV-1 strains [2]: potent activity
